# Data taken from US11098038B2, “Imidazole-based anticancer agents and derivatives thereof, and methods of making and using same” (The University of Toledo, priority 2017, dated 2021).
# Assays:
# Type in all cases: cell-based
# CCRF-CEM = assay: NCI 60 screen, CCRF-CEM; details: Homo sapiens, Leukemia
# Description: (§1) The compounds synthesized were tested at the National Cancer Institute (NCI) for anti-proliferative activity in the 60 human tumor cell line assay.
# HL-60(TB) = assay: NCI 60 screen, HL-60(TB); details: Homo sapiens, Leukemia
# Description: as §1
# MOLT-4 = assay: NCI 60 screen, MOLT-4; details: Homo sapiens, Leukemia
# Description: as §1
# RPMI-8226 = assay: NCI 60 screen, RPMI-8226; details: Homo sapiens, Leukemia
# Description: as §1
# A549/ATCC = assay: NCI 60 screen, A549/ATCC; details: Homo sapiens, Non-Small Cell Lung
# Description: as §1
# HOP-62 = assay: NCI 60 screen, HOP-62; details: Homo sapiens, Non-Small Cell Lung
# Description: as §1
# HOP-92 = assay: NCI 60 screen, HOP-92; details: Homo sapiens, Non-Small Cell Lung
# Description: as §1
# NCI-H23 = assay: NCI 60 screen, NCI-H23; details: Homo sapiens, Non-Small Cell Lung
# Description: as §1
# NCI-322M = assay: NCI 60 screen, NCI-322M; details: Homo sapiens, Non-Small Cell Lung
# Description: as §1
# NCI-460 = assay: NCI 60 screen, NCI-460; details: Homo sapiens, Non-Small Cell Lung
# Description: as §1
# NCI-H522 = assay: NCI 60 screen, NCI-H522; details: Homo sapiens, Non-Small Cell Lung
# Description: as §1
# COLO 205 = assay: NCI 60 screen, COLO 205; details: Homo sapiens, Colon
# Description: as §1
# HCC-2998 = assay: NCI 60 screen, HCC-2998; details: Homo sapiens, Colon
# Description: as §1
# HCT-116 = assay: NCI 60 screen, HCT-116; details: Homo sapiens, Colon
# Description: as §1
# HCT15 = assay: NCI 60 screen, HCT15; details: Homo sapiens, HCT-15, Colon
# Description: as §1
# KM12 = assay: NCI 60 screen, KM12; details: Homo sapiens, Colon
# Description: as §1
# SF-539 = assay: NCI 60 screen, SF-539; details: Homo sapiens, CNS
# Description: as §1
# SNB-19 = assay: NCI 60 screen, SNB-19; details: Homo sapiens, CNS
# Description: as §1
# SNB-75 = assay: NCI 60 screen, SNB-75; details: Homo sapiens, CNS
# Description: as §1
# U251 = assay: NCI 60 screen, U251; details: Homo sapiens, U-251, CNS
# Description: as §1
# LOX IMVI = assay: NCI 60 screen, LOX IMVI; details: Homo sapiens, Melanoma
# Description: as §1
# SK-MEL-2 = assay: NCI 60 screen, SK-MEL-2 (first line); details: Homo sapiens; Melanoma, SK-MEL-2 (first of two lines so named, r37)
# Description: as §1
# UACC-257 = assay: NCI 60 screen, UACC-257; details: Homo sapiens, Melanoma
# Description: as §1
# UACC-62 = assay: NCI 60 screen, UACC-62; details: Homo sapiens, Melanoma
# Description: as §1
# IGROV1 = assay: NCI 60 screen, IGROV1; details: Homo sapiens, IGROV-1, Ovarian
# Description: as §1
# OVCAR-4 = assay: NCI 60 screen, OVCAR-4; details: Homo sapiens, Ovarian
# Description: as §1
# OVCAR-8 = assay: NCI 60 screen, OVCAR-8; details: Homo sapiens, Ovarian
# Description: as §1
# NCI/ADR-RES = assay: NCI 60 screen, NCI/ADR-RES; details: Homo sapiens, Ovarian
# Description: as §1
# 786-0 = assay: NCI 60 screen, 786-0; details: Homo sapiens, Renal
# Description: as §1
# A498 = assay: NCI 60 screen, A498; details: Homo sapiens, Renal
# Description: as §1
# ACHN = assay: NCI 60 screen, ACHN; details: Homo sapiens, Renal
# Description: as §1
# CAKI-1 = assay: NCI 60 screen, CAKI-1; details: Homo sapiens, Renal
# Description: as §1
# RXF393 = assay: NCI 60 screen, RXF393; details: Homo sapiens, RXF 393, Renal
# Description: as §1
# TK-10 = assay: NCI 60 screen, TK-10; details: Homo sapiens, Renal
# Description: as §1
# UO-31 = assay: NCI 60 screen, UO-31; details: Homo sapiens, Renal
# Description: as §1
# PC-3 = assay: NCI 60 screen, PC-3; details: Homo sapiens, Prostatic
# Description: as §1
# T-47D = assay: NCI 60 screen, T-47D; details: Homo sapiens, T47D, Breast
# Description: as §1
# MDA-MB-468 = assay: NCI 60 screen, MDA-MB-468; details: Homo sapiens, Breast
# Description: as §1
# HeLa cells = assay: Mitotic arrest of HeLa cells observed under the microscope; details: 10 μM
# Description: FIG. 6: Color images showing untreated HeLa cells used as a control. Mitotic duration: 60 minutes. Each frame was taken after 12 minute intervals. Frame 5 to frame 9 show cells' progression through mitosis.
# FIG. 7: Color images showing HeLa cells treated with 10 μM of compound 25. Mitotic duration: 27.4 hr.
# Although developed as HDAC inhibitors, the compounds herein may actually act by multiple mechanisms. […] Snap shots were taken at a 12 minute interval.
# A cell that is rounded up in frame 2 enters mitosis (FIG. 7).
# [1] = tested on: chromosome alignment, centromeres, and spindle body; assay: Fluorescence microscopy of chromosome alignment, centromeres and spindle body; details: FIGS. 8A-8B
# Text: FIGS. 8A-8B: Color images showing effects of compound 25 on chromosome alignment, centromeres, and spindle body. Microtubules that make up the mitotic spindle are detected with an antibody linked to a green fluorophore, which was detected with a fluorescence microscope. Centromeres were detected with a far red fluorophore (they are pseudocolored pink). DNA was detected with Hoechst DNA stain, which is blue.
# In normal cells (FIG. 8A, upper two panels), chromosomes line up between the spindle poles at metaphase. In cells treated with compound 25 for several hours (FIG. 8A, lower two panels), cells still enter mitosis but centromeres are found all over the cell (not just in the middle between the poles of the spindle). […] However, when ZM is combined with compound 25, what was observed was a very dramatic disruption of spindle architecture. […] Without wishing to be bound by theory, it is believed that both Aurora B and the targets of compound 25 work in parallel to control tubulin function. When either one is inhibited alone, there is no effect since the other pathway compensates. When both are inhibited, the defect is detected.
structure (smiles),measurement,setting,value
"O=C(Cc1ccc(/C=C/C(=O)c2ncc[nH]2)cc1)Nc1ccc(Cl)cc1 [Compound 25, (E)-2-(-4 (3-(1H-imidazol-2-yl)-3-oxoprop-1-en-1-yl)phenyl)-N-(4-chlorophenyl)acetamide]",GI50,CCRF-CEM,1080 nM
same,GI50,HL-60(TB),3.8 µM
same,GI50,MOLT-4,1800 nM
same,GI50,RPMI-8226,857 nM
same,GI50,A549/ATCC,6.9 µM
same,GI50,HOP-62,3.19 µM
same,GI50,HOP-92,5.74 µM
same,GI50,NCI-H23,2970 nM
same,GI50,NCI-322M,4 µM
same,GI50,NCI-460,3.43 µM
same,GI50,NCI-H522,2600 nM
same,GI50,COLO 205,3.01 µM
same,GI50,HCC-2998,3.73 µM
same,GI50,HCT-116,848 nM
same,GI50,HCT15,879 nM
same,GI50,KM12,1300 nM
same,GI50,SF-539,3.33 µM
same,GI50,SNB-19,2320 nM
same,GI50,SNB-75,3.63 µM
same,GI50,U251,1020 nM
same,GI50,LOX IMVI,870 nM
same,GI50,SK-MEL-2,5.53 µM
same,GI50,UACC-257,7.24 µM
same,GI50,UACC-62,3.94 µM
same,GI50,IGROV1,3.59 µM
same,GI50,OVCAR-4,4.11 µM
same,GI50,OVCAR-8,3.65 µM
same,GI50,NCI/ADR-RES,5.02 µM
same,GI50,786-0,1130 nM
same,GI50,A498,5.48 µM
same,GI50,ACHN,4.04 µM
same,GI50,CAKI-1,4.88 µM
same,GI50,RXF393,3.05 µM
same,GI50,TK-10,5.41 µM
same,GI50,UO-31,1690 nM
same,GI50,PC-3,2390 nM
same,GI50,T-47D,3.24 µM
same,GI50,MDA-MB-468,1680 nM
same,Fate of arrested cells,HeLa cells,eventually underwent apoptosis
same,Mitotic arrest (progress through cell division),HeLa cells; monitored for over 27.4 hours,did not proceed with cell division
same,Mitotic duration,HeLa cells; untreated control 60 minutes,27.4 h
same,Spindle body / spindle architecture,[1],the spindle body remained intact
same,Chromosome alignment / centromere position,[1]; cells treated for several hours,chromosomes were misaligned
